Tests used:
Format in all cases: in vivo, human
panelists [1] = test: Testing of compounds: panel tasting of aqueous solutions against menthol at 2 ppm (Table 2); details: for Concentration [ppm]: aqueous solution (compound dissolved in ethanol at 1% by weight, then dosed into water), cooling intensity similar to or slightly higher than menthol at 2 ppm; for Description: panel description of the aqueous solution at the concentration listed in Table 2, reference menthol 2 ppm
Text: A small group of panelists were asked to taste various aqueous solutions of compounds. The compounds were first dissolved in ethanol at 1% by weight and then dosed into water.

panelists [2] = test: Panel taste test: concentration with cooling intensity similar or slightly higher than menthol at 2 ppm (Table 1); details: solution judged to have cooling intensity similar or slightly higher than menthol at 2 ppm; tasted by small panel
panelists [3] = test: Panel taste test: longevity of cooling in the mouth (Table 1); details: solutions tasted at the chosen concentration; time until no cooling could be sensed in the mouth
Text: In a second experiment, the same panel was asked to taste the solutions at the chosen concentrations and to record the cooling intensity at regular time intervals until no cooling could be sensed in the mouth.

mouth = test: Application in toothpaste; details: toothgel with 2.5 g per 100 g of a 2% solution in PG; teeth brushed, mouth rinsed with water
Text: [table] The materials are mixed in the toothgel, and a panelist's teeth are brushed using this toothgel. The mouth is rinsed with water and the water spit out. […] The cooling perception lasts for several hours.

Compound | Concentration [ppm] (panelists [1]) | Description (panelists [1]) | also measured
CC(C)[C@@H]1CC[C@@H](C)C[C@H]1C(=O)NCc1ccc(S(N)(=O)=O)cc1 [Example 27, (1R,2S,5R)-2-isopropyl-5-methyl-N-(4-sulfamoylbenzyl)-cyclohexanecarboxamide] | 2 | – | –
CC(C)[C@@H]1CC[C@@H](C)C[C@H]1O [Example 1-Menthol, (1R, 2S, 5R)-2-isopropyl-5-methyl-cyclohexanol, reference compound] | – | – | Concentration (panelists [2]): 2.0 ppm; Longevity (panelists [3]): 35 min
CC(C)[C@@H]1CC[C@@H](C)C[C@H]1C(=O)NCc1ccc(C(=O)O)cc1 [Example 24, 4-(((1R,2S,5R)-2-isopropyl-5-methylcyclohexane-carboxamido)methyl)benzoic acid] | 2 | little cooling, slightly refreshing | –
CC(C)[C@@H]1CC[C@@H](C)C[C@H]1C(=O)NCc1ccc(C(=O)O)cc1 [Example 28, 4-(((1R,2S,5R)-2-isopropyl-5-methyl-cyclohexanecarboxamido)-methyl)benzoic acid] | 2 | strong cooling up front, peppery heat | –
CC(C)[C@@H]1CC[C@@H](C)C[C@H]1C(=O)Nc1ccc(C=O)cc1 [Example 19, (1R,2S,5R)-N-(4-formylphenyl)-2-isopropyl-5-methylcyclo-hexanecarboxamide] | 2 | cooling builds and lingers | –
CC1CCC(C(C)C)C(C(=O)Nc2ccc(S(N)(=O)=O)cc2)C1 (centres unmarked) [Example 2, N-(4-sulfamoylphenyl) p-menthanecarboxamide] | – | – | Cooling sensation felt in the mouth (mouth): intense cooling sensation; Duration of cooling perception (mouth): several hours
CC1CCC(C(C)C)C(C(=O)Nc2ccc(CC#N)cc2)C1 (centres unmarked) [Example 1, N-(4-cyanomethylphenyl) p-menthanecarboxamide] | – | – | Concentration (panelists [2]): 0.2 ppm; Longevity (panelists [3]): 93 min
CC(C)Oc1ccc(CNC(=O)[C@@H]2C[C@H](C)CC[C@H]2C(C)C)cc1 [Example 7, (1R,2S,5R)-N-(4-isopropoxybenzyl)-2-isopropyl-5-methylcyclohexanecarboxamide] | 0.01 | – | –
CC(C)[C@@H]1CC[C@@H](C)C[C@H]1C(=O)NCc1ccc(C#N)cc1 [Example 25, (1R,2S,5R)-N-(4-cyanobenzyl)-2-isopropyl-5-methylcyclohexanecarboxamide] | 2 | good icy cooling, slightly astringent | –
CCNC(=O)C1CC(C)CCC1C(C)C (centres unmarked) [N-ethyl p-menthanecarboxamide (WS-3), N-ethyl p-menthanecarboxamide, reference compound] | – | – | Concentration (panelists [2]): 1.5 ppm; Longevity (panelists [3]): 57 min
CC1CCC(C(C)C)C(C(=O)Nc2ccc(C#N)cc2)C1 (centres unmarked) [Example 3, N-(4-cyanophenyl) p-menthanecarboxamide] | – | – | Concentration (panelists [2]): 0.5 ppm; Longevity (panelists [3]): 90 min
CC(C)[C@@H]1CC[C@@H](C)C[C@H]1C(=O)Nc1ccccc1C#N [Example 30, (1R,2S,5R)-N-(2-cyanophenyl)-2-isopropyl-5-methylcyclohexane-carboxamide] | 2 | clean, slightly stronger than menthol | –
COC(=O)c1ccc(NC(=O)[C@@H]2C[C@H](C)CC[C@H]2C(C)C)cc1OC [Example 9, methyl 4-((1R,2S,5R)-2-isopropyl-5-methylcyclohexane-carboxamido)-2-methoxybenzoate] | 0.005 | – | –
CC(C)[C@@H]1CC[C@@H](C)C[C@H]1C(=O)Nc1ccc(C(=O)O)cc1 [Example 23, 4-((1R,2S,5R)-2-isopropyl-5-methylcyclohexane-carboxamido)benzoic acid] | 2 | slightly burning then cooling | –
CCOC(=O)Cc1ccc(NC(=O)[C@@H]2C[C@H](C)CC[C@H]2C(C)C)cc1 [Example 29, ethyl 2-(4-((1R,2S,5R)-2-isopropyl-5-methylcyclohexane-carboxamido)phenyl)acetate] | 2 | icy, crisp cool on tongue | –
CC(C)[C@@H]1CC[C@@H](C)CC1C(=O)Nc1cccc(C#N)c1 (stereo partly drawn) [Example 31, (2S,5R)-N-(3-cyanophenyl)-2-isopropyl-5-methylcyclohexane-carboxamide] | 1 | weak cooling, tingling, numbing on tongue, | –
COC(=O)c1ccc(NC(=O)[C@@H]2C[C@H](C)CC[C@H]2C(C)C)cc1 [Example 15, methyl 4-((1R,2S,5R)-2-isopropyl-5-methylcyclohexane-carboxamido)benzoate] | 2 | slightly cooling, flat cooling | –
CCOC(=O)c1ccc(NC(=O)[C@@H]2C[C@H](C)CC[C@H]2C(C)C)cc1 [Example 16, ethyl 4-((1R,2S,5R)-2-isopropyl-5-methylcyclohexane-carboxamido)benzoate] | 2 | Cooling similar to menthol | –
CC(C)[C@@H]1CC[C@@H](C)C[C@H]1C(=O)Nc1ccccc1C#N [Example 32] | 2 | mouthcoating, more cooling than menthol | –
